From patent publication US20250171418A1, “PARP1 INHIBITORS AND USES THEREOF” (XinThera, Inc., priority 2022, published 2025)

Experiments:
[1] = tested on: DLD-1 BRCA2(−/−); assay: Cell growth inhibition assay (CellTiter-Glo cell viability); assay type: cell-based; conditions: DLD-1 BRCA2(−/−) cells, 7 days, CellTiter Glo 2.0
Procedure: (§1) Cell proliferation was measured through the cell viability assay using DLD-1 BRCA2(−/−) and parental isogenic pair and MDA-MB-436 (mutated BRCA1) cell lines. The CellTiter-Glo (CTG) based cell viability assay is designed to determine the number of viable cells in the culture because of compound effect, by quantifying ATP, which indicates the presence of metabolically active cells.
(§2) DLD-1 BRCA2(−/−) and parental isogenic pair were cultured in RPMI 1640 supplemented with 10% fetal bovine serum (FBS), and MDA-MB-436 cells were cultured in DMEM supplemented with 10% FBS. Both were cultured at 37° C. with […]. Invention compounds were distributed to the 384 well plate (Corning, 3764) using Echo acoustic liquid handler to form a 1:3 serially diluted final concentration with top dose of 10 or 30 μM.

[2] = tested on: MDA-MB-436 (mutated BRCA1) cell lines; assay: as above; assay type: cell-based; conditions: MDA-MB-436 cells, 7 days, CellTiter Glo 2.0
Procedure: as §1, §2

[3] = target: PARP1 (Homo sapiens, UniProt P09874); assay: biochemical
Procedure: The assay was performed utilizing the following method:
Compounds were dissolved in DMSO an Echo550 liquid handler was utilized to make serial dilations in the desired concentration range in Optiplate-384F plates. 100% DMSO was used for the high (with protein) and low (without protein) control samples. 20 nL of compound or DMSO alone was added to individual assay plate wells.
PARP1 and PARP2 protein were expressed, purified, and diluted in assay buffer containing 50 mM Tris pH 8.0, 0.001% Triton X-100, 10 mM MgCl2, 150 mM NaCl to a final concentration of 20 nM. The PARPi-FL was then added at a final concentration of 3 nM.
The assay plate was centrifuged at 1000 rpm for 1 min and incubated for 4 h at room temperature.
The fluorescent polarization was read using an Envision plate reader using the following settings: • Excitation filter—FITC FP 480-Ex Slot 3 • Emission filter—FITC FP P-pol 535-Em Slot 4 • 2nd Emission filter—FITC FP S-pol 535-Em Slot 3 • Mirror module—FITC FP Dual Enh-Slot 1
XLFit (equation 201) is used to calculate a reported IC50 for each compound.

[4] = target: T1, MDR1 (Homo sapiens, UniProt P08183); assay: In vitro human transporter efflux, MDCKII cells expressing MDR1; assay type: in vitro ADME; conditions: for Papp A→B at 2 h, 10 μM: MDCK-MDR1, pH 7.4, read-out: MDCK-MDR1 Papp AB; for Papp B→A at 2 h, 10 μM: MDCK-MDR1, pH 7.4, read-out: MDCK-MDR1 Papp BA
T1 construct: expressed in transfected cells; host or cells: MDCKII (Madin-Darby canine kidney) cells
Procedure: (§3) Madin-Darby canine kidney (MDCKII) cells expressing either MDR1 or BCRP were seeded onto Corning HTS Transwell® 96-well polycarbonate permeable (0.4 μm pore) supports at a density of 545,000 cells/cm2. Cells were incubated for 4-8 days prior to assay, and monolayer integrity was assessed by measuring transepithelial electrical resistance (TEER). […] The final organic solvent concentration was 0.5% (v/v). Bidirectional (apical-to-basolateral and basolateral-to-apical) flux of the test and reference compounds was determined over a 2-hour incubation at 37° C. and […] with a relative humidity of 95%. At the end of the incubation, samples from the apical and basolateral side were taken and then precipitated with acetonitrile containing internal standard. After centrifugation at 3200×g, supernatants were diluted 1:1 (v/v) with water and subjected to analysis via HPLC-MS/MS.
(§4) The apparent permeability (Papp, units of x 10-6 cm/s) was calculated using the following equation: […]
(§5) Where dQ/dt was the rate of drug transport (pmol/s), A was the surface area of the membrane (0.143 cm^2), and DO was the initial donor concentration (nM or pmol/cm3).
(§6) Efflux ratio=Papp(B→A)/Papp(A→B)
(§7) Where Papp(B→A) is the apparent permeability in the basolateral-to-apical direction, and Papp(A→B) is the apparent permeability in the apical-to-basolateral direction.

[5] = target: T2, BCRP (Homo sapiens, UniProt Q9UNQ0); assay: In vitro human transporter efflux, MDCKII cells expressing BCRP; assay type: in vitro ADME; conditions: for Papp A→B at 2 h, 10 μM: pH 7.4, read-out: BCRP Papp AB; for Papp B→A at 2 h, 10 μM: pH 7.4, read-out: BCRP Papp BA
T2 construct: expressed in transfected cells; host or cells: MDCKII (Madin-Darby canine kidney) cells
T2 sequence (Q9UNQ0 1-655): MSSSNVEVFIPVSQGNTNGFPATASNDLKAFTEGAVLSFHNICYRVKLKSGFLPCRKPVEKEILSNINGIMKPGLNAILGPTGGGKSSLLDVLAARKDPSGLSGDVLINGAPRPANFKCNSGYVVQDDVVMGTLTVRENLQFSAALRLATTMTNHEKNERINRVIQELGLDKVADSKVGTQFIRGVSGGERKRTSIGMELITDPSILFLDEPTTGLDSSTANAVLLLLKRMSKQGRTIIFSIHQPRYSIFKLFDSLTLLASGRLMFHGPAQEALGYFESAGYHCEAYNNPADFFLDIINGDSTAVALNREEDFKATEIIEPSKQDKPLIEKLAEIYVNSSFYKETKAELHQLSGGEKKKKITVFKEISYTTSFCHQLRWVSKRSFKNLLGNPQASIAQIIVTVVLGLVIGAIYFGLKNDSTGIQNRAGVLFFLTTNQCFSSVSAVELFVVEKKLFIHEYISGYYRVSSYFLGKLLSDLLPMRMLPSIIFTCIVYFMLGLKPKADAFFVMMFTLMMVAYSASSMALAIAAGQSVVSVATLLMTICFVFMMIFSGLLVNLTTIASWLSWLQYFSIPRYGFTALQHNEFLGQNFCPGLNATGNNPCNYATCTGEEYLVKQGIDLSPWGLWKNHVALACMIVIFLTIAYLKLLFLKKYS
Procedure: as §3, §4, §5, §6, §7

T1 sequence (P08183 whole entry): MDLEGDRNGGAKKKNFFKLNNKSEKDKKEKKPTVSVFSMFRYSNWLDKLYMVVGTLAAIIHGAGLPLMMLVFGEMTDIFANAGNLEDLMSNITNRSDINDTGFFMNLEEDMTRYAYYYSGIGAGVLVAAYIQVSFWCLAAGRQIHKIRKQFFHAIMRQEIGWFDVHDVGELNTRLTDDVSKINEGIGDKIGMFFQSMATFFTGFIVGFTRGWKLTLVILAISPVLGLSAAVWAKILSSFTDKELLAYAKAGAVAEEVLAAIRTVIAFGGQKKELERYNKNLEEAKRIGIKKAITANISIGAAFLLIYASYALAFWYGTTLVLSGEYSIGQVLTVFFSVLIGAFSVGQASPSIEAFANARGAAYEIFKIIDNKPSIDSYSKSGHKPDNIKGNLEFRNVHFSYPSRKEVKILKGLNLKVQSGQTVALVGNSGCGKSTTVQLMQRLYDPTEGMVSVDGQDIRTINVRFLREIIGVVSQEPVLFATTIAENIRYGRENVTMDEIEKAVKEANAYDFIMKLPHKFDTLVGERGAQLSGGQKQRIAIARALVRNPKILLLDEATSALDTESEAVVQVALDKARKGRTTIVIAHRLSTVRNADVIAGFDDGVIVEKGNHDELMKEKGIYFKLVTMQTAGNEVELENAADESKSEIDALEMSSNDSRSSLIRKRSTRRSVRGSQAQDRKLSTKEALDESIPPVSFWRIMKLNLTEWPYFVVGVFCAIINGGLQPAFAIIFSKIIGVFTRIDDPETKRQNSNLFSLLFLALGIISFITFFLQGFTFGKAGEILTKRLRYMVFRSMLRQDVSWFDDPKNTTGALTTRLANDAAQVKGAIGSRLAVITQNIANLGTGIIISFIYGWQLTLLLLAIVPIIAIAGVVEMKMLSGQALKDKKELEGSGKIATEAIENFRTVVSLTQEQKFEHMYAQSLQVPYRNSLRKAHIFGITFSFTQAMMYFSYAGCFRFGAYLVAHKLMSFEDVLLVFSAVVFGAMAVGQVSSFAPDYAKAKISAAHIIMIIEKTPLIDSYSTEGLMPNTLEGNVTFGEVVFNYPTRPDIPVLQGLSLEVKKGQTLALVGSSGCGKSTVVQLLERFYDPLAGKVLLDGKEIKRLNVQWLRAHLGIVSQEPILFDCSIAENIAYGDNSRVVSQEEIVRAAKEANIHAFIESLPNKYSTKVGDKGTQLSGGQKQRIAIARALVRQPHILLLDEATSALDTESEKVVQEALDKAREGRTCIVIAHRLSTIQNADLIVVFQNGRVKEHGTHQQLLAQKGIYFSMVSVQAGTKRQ
Chain of PARP1 (P09874 whole entry): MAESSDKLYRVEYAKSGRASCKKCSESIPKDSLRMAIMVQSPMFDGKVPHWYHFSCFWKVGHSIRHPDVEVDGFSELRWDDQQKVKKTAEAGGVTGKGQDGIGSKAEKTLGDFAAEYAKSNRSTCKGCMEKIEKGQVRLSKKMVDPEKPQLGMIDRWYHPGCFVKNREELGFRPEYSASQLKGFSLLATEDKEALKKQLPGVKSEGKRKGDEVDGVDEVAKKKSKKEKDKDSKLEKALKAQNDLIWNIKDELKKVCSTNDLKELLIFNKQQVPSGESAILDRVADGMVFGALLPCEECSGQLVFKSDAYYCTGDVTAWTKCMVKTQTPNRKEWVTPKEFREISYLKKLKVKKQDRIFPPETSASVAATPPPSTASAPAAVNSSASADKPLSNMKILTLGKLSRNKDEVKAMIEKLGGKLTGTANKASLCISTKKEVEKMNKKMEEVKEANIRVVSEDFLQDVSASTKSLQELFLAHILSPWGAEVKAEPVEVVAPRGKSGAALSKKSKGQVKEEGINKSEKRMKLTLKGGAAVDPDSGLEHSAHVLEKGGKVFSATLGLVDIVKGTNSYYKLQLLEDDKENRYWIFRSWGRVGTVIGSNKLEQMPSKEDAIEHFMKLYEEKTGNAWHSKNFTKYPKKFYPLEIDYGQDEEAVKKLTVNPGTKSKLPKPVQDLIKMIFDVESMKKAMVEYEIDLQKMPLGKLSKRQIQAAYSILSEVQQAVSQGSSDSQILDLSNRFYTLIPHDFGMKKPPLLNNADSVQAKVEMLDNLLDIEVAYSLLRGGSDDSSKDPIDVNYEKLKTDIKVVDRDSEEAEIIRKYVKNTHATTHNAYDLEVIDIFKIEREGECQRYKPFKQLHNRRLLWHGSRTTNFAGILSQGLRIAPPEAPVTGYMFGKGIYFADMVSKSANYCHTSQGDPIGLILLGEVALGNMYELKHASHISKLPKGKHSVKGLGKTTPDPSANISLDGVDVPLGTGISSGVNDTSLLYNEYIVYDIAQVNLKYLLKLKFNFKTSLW

| SMILES | EC50 ([1]; Homo sapiens, DLD-1, 168 h) | EC50 ([2]; Homo sapiens, 168 h) | IC50 [3] | other results |
| --- | --- | --- | --- | --- |
| CNC(=O)c1ccc(N2CCN(Cc3ccc4nc(C)c(=O)[nH]c4c3F)[C@H]3C[C@H]32)c(F)n1 (relative stereo) [Example 2, rel-6-fluoro-5-[(1R,6S)-5-[(5-fluoro-2-methyl-3-oxo-4H-quinoxalin-6-yl)methyl]-2,5-diazabicyclo[4.1.0]heptan-2-yl]-N-methylpyridine-2-carboxamide] | 3.5 nM | 7 nM |  |  |
| Cc1nc2ccc(CN3CCN(c4ccc(C(=O)NC5CC5)nc4)[C@H]4C[C@H]43)c(F)c2[nH]c1=O (single isomer, unassigned) [Example 6] | 84 nM | 58 nM | 14 nM |  |
| Cc1nc2ccc(CN3CCN(c4ccc(C(=O)NC5CC5)nc4F)[C@H]4C[C@H]43)c(F)c2[nH]c1=O (single isomer, unassigned) [Example 9] | 19 nM | 7.2 nM |  |  |
| CCc1nc2ccc(C(C)N3CCN(c4ccc(C(=O)NC)nc4)CC3)c(F)c2[nH]c1=O (single isomer, unassigned) [Example 15] | 28 nM | 15 nM |  |  |
| CCc1nc2ccc(C(C)N3CCN(c4ccc(C(=O)NC)nc4)CC3)c(F)c2[nH]c1=O (single isomer, unassigned) [Example 16] |  |  |  | EC50 [1]: 30 nM; EC50 [2]: 15 nM |
| CCc1nc2ccc([C@H](C)N3CCN(c4ccc(C(=O)NC)nc4F)CC3)c(F)c2[nH]c1=O (single isomer, unassigned) [Example 17] | 7.7 nM | 6.8 nM | 24 nM |  |
| CCc1nc2ccc([C@@H](C)N3CCN(c4ccc(C(=O)NC)nc4F)CC3)c(F)c2[nH]c1=O (single isomer, unassigned) [Example 18] | 8.7 nM | 4.4 nM | 15 nM |  |
| Cc1nc2ccc(CN3CCN(c4ccc(C(=O)N[C@H]5CC5(F)F)nc4F)CC3)c(F)c2[nH]c1=O (single isomer, unassigned) [Example 20] | 5.7 nM | 3.1 nM |  |  |
| Cc1nc2ccc(CN3CCN(c4ccc(C(=O)N[C@@H]5CC5(F)F)nc4F)CC3)c(F)c2[nH]c1=O (single isomer, unassigned) [Example 21] | 3.1 nM | 2 nM |  | Papp A→B at 2 h, 10 μM [4]: 16.6 ×10⁻⁶ cm/s; Papp B→A at 2 h, 10 μM [4]: 16.4 ×10⁻⁶ cm/s; Papp A→B at 2 h, 10 μM [5]: 21.4 ×10⁻⁶ cm/s; Papp B→A at 2 h, 10 μM [5]: 19.4 ×10⁻⁶ cm/s |
| CNC(=O)c1ccc(N2CCN([C@@H](C)c3ccc4nc(C)c(=O)[nH]c4c3F)CC2)c(F)n1 (single isomer, unassigned) [Example 22] | 25 nM | 14 nM |  |  |
| CNC(=O)c1ccc(N2CCN([C@H](C)c3ccc4nc(C)c(=O)[nH]c4c3F)CC2)c(F)n1 (single isomer, unassigned) [Example 23] | 18 nM | 18 nM |  |  |
| Cc1nc2ccc([C@H](C)N3CCN(c4ccc(C(=O)NC5CC5)nc4F)CC3)c(F)c2[nH]c1=O (single isomer, unassigned) [Example 24] | 20 nM | 7.9 nM | 24 nM |  |
| Cc1nc2ccc([C@@H](C)N3CCN(c4ccc(C(=O)NC5CC5)nc4F)CC3)c(F)c2[nH]c1=O (single isomer, unassigned) [Example 25] | 35 nM | 12 nM | 24 nM |  |
| Cc1nc2ccc([C@H](C)N3CCN(c4ccc(C(=O)NC5CC5)nc4)CC3)c(F)c2[nH]c1=O (single isomer, unassigned) [Example 28] | 970 nM | 21 nM | 70 nM |  |
| Cc1nc2ccc([C@@H](C)N3CCN(c4ccc(C(=O)NC5CC5)nc4)CC3)c(F)c2[nH]c1=O (single isomer, unassigned) [Example 29] | 45 nM | 84 nM | 90 nM |  |
| CNC(=O)c1ccc(N2CCN(Cc3ccc4nc(C)c(=O)[nH]c4c3F)C[C@H]2C)c(F)n1 [Example 3] | 17 nM | 35 nM |  |  |
| Cc1nc2ccc(CN3CCN(c4ccc(C(=O)NC56CC(C5)C6)nc4F)CC3)c(F)c2[nH]c1=O [Example 4] | 5.2 nM | 3.7 nM | 18 nM |  |
| CNC(=O)c1ccc(C2CCN(Cc3ccc4nc(C)c(=O)[nH]c4c3F)CC2)c(F)n1 [Example 5, 6-fluoro-5-{1-[(5-fluoro-2-methyl-3-oxo-4H-quinoxalin-6-yl)methyl]piperidin-4-yl}-N-methylpyridine-2-carboxamide] | 23 nM | 11 nM | 16 nM |  |
| CNC(=O)c1ccc(C2=CCN(Cc3ccc4nc(C)c(=O)[nH]c4c3F)CC2)c(F)n1 [Example 7, 2-fluoro-1′-[(5-fluoro-2-methyl-3-oxo-4H-quinoxalin-6-yl)methyl]-N-methyl-3′,6′-dihydro-2′H-[3,4′-bipyridine]-6-carboxamide] | 15 nM | 6.7 nM | 15 nM |  |
| Cc1nc2ccc(CN3CCN(c4ccc(C(=O)NC5CC5)nc4)CC3)c(F)c2[nH]c1=O [Example 8] | 39 nM | 13 nM | 15 nM |  |
| COCCNC(=O)c1ccc(N2CCN(Cc3ccc4nc(C)c(=O)[nH]c4c3F)CC2)c(F)n1 [Example 10] | 14 nM | 8.1 nM |  |  |
| Cc1nc2ccc(CN3CCN(c4ccc(C(=O)N[C@H]5C[C@H](F)C5)nc4F)CC3)c(F)c2[nH]c1=O [Example 11] | 6.8 nM | 3.8 nM | 5.2 nM |  |
| CCc1nc2ccc(CN3CCN(c4ccc(C(=O)NCCOC)nc4F)CC3)c(F)c2[nH]c1=O [Example 12] | 7.1 nM | 5.3 nM |  |  |
| Cc1nc2ccc(CN3CCN(c4ccc(C(=O)NC5CC(F)(F)C5)nc4F)CC3)c(F)c2[nH]c1=O [Example 13] | 4.4 nM | 5 nM |  |  |
| CCc1nc2ccc(CN3CCN(c4ccc(C(=O)NC5CC5)nc4F)CC3)c(F)c2[nH]c1=O [Example 14] | 2.8 nM | 2.1 nM | 5.3 nM |  |
| Cc1nc2ccc(CN3CCN(c4ccc(C(=O)NCC(F)F)nc4F)CC3)c(F)c2[nH]c1=O [Example 19] | 3.9 nM | 2.2 nM | 18 nM | efflux ratio at 2 h, 10 μM ([4]; MDCK-MDR1, pH 7.4, Efflux ratio=Papp(B→A)/Papp(A→B)): 0.87; Papp A→B at 2 h, 10 μM [4]: 20.9 ×10⁻⁶ cm/s; Papp B→A at 2 h, 10 μM [4]: 18.2 ×10⁻⁶ cm/s; efflux ratio at 2 h, 10 μM ([5]; pH 7.4, Efflux ratio=Papp(B→A)/Papp(A→B)): 0.73; Papp A→B at 2 h, 10 μM [5]: 28 ×10⁻⁶ cm/s; Papp B→A at 2 h, 10 μM [5]: 20.2 ×10⁻⁶ cm/s |
| Cc1nc2ccc(CN3CC=C(c4ccc(C(=O)NC5CC5)nc4F)CC3)c(F)c2[nH]c1=O [Example 26] | 21 nM | 23 nM | 37 nM |  |
| Cc1nc2ccc(CN3CCC(c4ccc(C(=O)NC5CC5)nc4F)CC3)c(F)c2[nH]c1=O [Example 27] | 27 nM | 11 nM |  |  |
